Measured values reported in patent US20230123334A1, “AMINO LIPID COMPOUND, PREPARATION METHOD THEREFOR, AND APPLICATION THEREOF” (SHENZHEN SHENXIN BIOTECHNOLOGY CO., LTD., priority 2020, published 2023).

System: HEK293 cells
Assay: Preliminary screening as mRNA vectors, EGFP mRNA transfection of HEK293 cells
Type: cell-based
Conditions: EGFP mRNA 50 ng per well, 96-well plates; percentage of GFP fluorescent cells relative to total number of cells (Hoechst)
Outline: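 HEK293 cells in DMEM plus 10% FBS transfected in 96-well format with 50 ng EGFP mRNA per well; Lipofectamine2000 served as positive control. Read-out is the percentage of GFP-fluorescent cells among total cells, counted by Hoechst nuclear stain.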

Compound	Absolute mRNA transfection efficiency in HEK293 cells
CCCCCCCNc1nc(NCCN2CCCCC2)nc(SCCCCCCC)n1 [Compound D4S7N7]	3.4%
CCCCCCCCNc1nc(NCCN2CCCCC2)nc(SCCCCCCC)n1 [Compound D4S7N8]	0.5%
CCCCCCCCCNc1nc(NCCN2CCCCC2)nc(SCCCCCCC)n1 [Compound D4S7N9]	4.9%
CCCCCCCCCCCNc1nc(NCCN2CCCCC2)nc(SCCCCCCC)n1 [Compound D4S7N11]	1.0%
CCCCCCCCCCCCNc1nc(NCCN2CCCCC2)nc(SCCCCCCC)n1 [Compound D4S7N12]	0.6%
CCCCCCCCCCCCCNc1nc(NCCN2CCCCC2)nc(SCCCCCCC)n1 [Compound D4S7N13]	0.7%
CCCCCCCCCCCCCCCNc1nc(NCCN2CCCCC2)nc(SCCCCCCC)n1 [Compound D4S7N15]	2.6%
CCCCCCCCCCCCCCCCNc1nc(NCCN2CCCCC2)nc(SCCCCCCC)n1 [Compound D4S7N16]	1.3%
CCCCCCCCCCCCCCCCCCNc1nc(NCCN2CCCCC2)nc(SCCCCCCC)n1 [Compound D4S7N18]	7.9%
CCCCCCCSc1nc(NCCN2CCCCC2)nc(SCCCCCCC)n1 [Compound D4S7S7]	13.5%
CCCCCCCCSc1nc(NCCN2CCCCC2)nc(SCCCCCCC)n1 [Compound D4S7S8]	5.9%
CCCCCCCCCSc1nc(NCCN2CCCCC2)nc(SCCCCCCC)n1 [Compound D4S7S9]	3.7%
CCCCCCCCCCSc1nc(NCCN2CCCCC2)nc(SCCCCCCC)n1 [Compound D4S7S10]	2.7%
CCCCCCCCCCCSc1nc(NCCN2CCCCC2)nc(SCCCCCCC)n1 [Compound D4S7S11]	8.0%
CCCCCCCCCCCCSc1nc(NCCN2CCCCC2)nc(SCCCCCCC)n1 [Compound D4S7S12]	9.2%
CCCCCCCCCCCCCCSc1nc(NCCN2CCCCC2)nc(SCCCCCCC)n1 [Compound D4S7S14]	8.3%
CCCCCCCCCCCCCCCSc1nc(NCCN2CCCCC2)nc(SCCCCCCC)n1 [Compound D4S7S15]	6.7%
CCCCCCCCCCCCCCCCSc1nc(NCCN2CCCCC2)nc(SCCCCCCC)n1 [Compound D4S7S16]	8.8%
CCCCCCCCCCCCCCCCCCSc1nc(NCCN2CCCCC2)nc(SCCCCCCC)n1 [Compound D4S7S18]	4.5%
CCCCCCCCSc1nc(NCCCCCC)nc(NCCN2CCCCC2)n1 [Compound D4S8N6]	2.7%
CCCCCCCCSc1nc(NCCCCCCC)nc(NCCN2CCCCC2)n1 [Compound D4S8N7]	1.8%
CCCCCCCCNc1nc(NCCN2CCCCC2)nc(SCCCCCCCC)n1 [Compound D4S8N8]	0.6%
CCCCCCCCCNc1nc(NCCN2CCCCC2)nc(SCCCCCCCC)n1 [Compound D4S8N9]	2.3%
CCCCCCCCCCCNc1nc(NCCN2CCCCC2)nc(SCCCCCCCC)n1 [Compound D4S8N11]	0.3%

Compound	Absolute mRNA transfection efficiency in HEK293 cells
CCCCCCCCCCCCNc1nc(NCCN2CCCCC2)nc(SCCCCCCCC)n1 [Compound D4S8N12]	3.5%
CCCCCCCCCCCCCNc1nc(NCCN2CCCCC2)nc(SCCCCCCCC)n1 [Compound D4S8N13]	4.5%
CCCCCCCCCCCCCCCNc1nc(NCCN2CCCCC2)nc(SCCCCCCCC)n1 [Compound D4S8N15]	2.6%
CCCCCCCCCCCCCCCCNc1nc(NCCN2CCCCC2)nc(SCCCCCCCC)n1 [Compound D4S8N16]	1.9%
CCCCCCCCCCCCCCCCCCNc1nc(NCCN2CCCCC2)nc(SCCCCCCCC)n1 [Compound D4S8N18]	3.5%
CCCCCCCCSc1nc(NCCN2CCCCC2)nc(SCCCCCCCC)n1 [Compound D4S8S8]	9.9%
CCCCCCCCCSc1nc(NCCN2CCCCC2)nc(SCCCCCCCC)n1 [Compound D4S8S9]	14.3%
CCCCCCCCCCSc1nc(NCCN2CCCCC2)nc(SCCCCCCCC)n1 [Compound D4S8S10]	9.2%
CCCCCCCCCCCSc1nc(NCCN2CCCCC2)nc(SCCCCCCCC)n1 [Compound D4S8S11]	10.9%
CCCCCCCCCCCCSc1nc(NCCN2CCCCC2)nc(SCCCCCCCC)n1 [Compound D4S8S12]	1.0%
CCCCCCCCCSc1nc(NCCCCCC)nc(NCCN2CCCCC2)n1 [Compound D4S9N6]	0.3%
CCCCCCCCCSc1nc(NCCCCCCC)nc(NCCN2CCCCC2)n1 [Compound D4S9N7]	3.0%
CCCCCCCCCSc1nc(NCCCCCCCC)nc(NCCN2CCCCC2)n1 [Compound D4S9N8]	6.6%
CCCCCCCCCNc1nc(NCCN2CCCCC2)nc(SCCCCCCCCC)n1 [Compound D4S9N9]	11.3%
CCCCCCCCCCCNc1nc(NCCN2CCCCC2)nc(SCCCCCCCCC)n1 [Compound D4S9N11]	17.4%
CCCCCCCCCCCCNc1nc(NCCN2CCCCC2)nc(SCCCCCCCCC)n1 [Compound D4S9N12]	9.5%
CCCCCCCCCCCCCNc1nc(NCCN2CCCCC2)nc(SCCCCCCCCC)n1 [Compound D4S9N13]	10.8%
CCCCCCCCCCCCCCCNc1nc(NCCN2CCCCC2)nc(SCCCCCCCCC)n1 [Compound D4S9N15]	4.9%
CCCCCCCCCCCCCCCCNc1nc(NCCN2CCCCC2)nc(SCCCCCCCCC)n1 [Compound D4S9N16]	2.2%
CCCCCCCCCCCCCCCCCCNc1nc(NCCN2CCCCC2)nc(SCCCCCCCCC)n1 [Compound D4S9N18]	8.3%
CCCCCCCCCCSc1nc(NCCCCCC)nc(NCCN2CCCCC2)n1 [Compound D4S10N6]	0.1%
CCCCCCCCCCSc1nc(NCCCCCCC)nc(NCCN2CCCCC2)n1 [Compound D4S10N7]	0.1%
CCCCCCCCCCSc1nc(NCCCCCCCC)nc(NCCN2CCCCC2)n1 [Compound D4S10N8]	0.1%
